Measured values from US12410160B2 (Gilead Sciences, Inc., priority 2021, dated 2025).

Assays:
[1] = biological target: human KHK-A (Homo sapiens (Human), UniProt P50053); experiment: KHK Biochemical Assay (IC50), ADP-Glo, KHK-A; settings: average of at least two separate assays
Method in brief: (§1)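 His-tagged enzyme expressed in BL21 (DE3), Ni-NTA purified. Compounds, serially diluted 1:3 in DMSO, pre-incubated 30 min with enzyme in 50 mM Hepes pH 7.4, 140 mM KCl, 5 mM MgCl2, 0.01% Triton-X, then ATP and fructose added; 4 h at room temperature. ADP formation read by ADP-Glo luminescence.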

[2] = biological target: human KHK-C (Homo sapiens (Human), UniProt P50053); experiment: KHK Biochemical Assay (IC50), ADP-Glo, KHK-C; settings: average of at least two separate assays
Chain of human KHK-C (P50053 whole entry): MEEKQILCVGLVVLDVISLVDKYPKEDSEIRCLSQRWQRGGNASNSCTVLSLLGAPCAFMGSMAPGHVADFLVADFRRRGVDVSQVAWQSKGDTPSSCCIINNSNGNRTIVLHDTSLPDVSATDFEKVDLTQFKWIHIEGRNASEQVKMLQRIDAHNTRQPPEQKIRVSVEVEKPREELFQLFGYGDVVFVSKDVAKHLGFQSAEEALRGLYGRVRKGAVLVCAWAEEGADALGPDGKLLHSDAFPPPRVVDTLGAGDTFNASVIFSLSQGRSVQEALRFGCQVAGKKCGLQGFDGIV
Method in brief: as §1

Chain of human KHK-A (P50053 other isoform, or with tags, fused parts or gaps): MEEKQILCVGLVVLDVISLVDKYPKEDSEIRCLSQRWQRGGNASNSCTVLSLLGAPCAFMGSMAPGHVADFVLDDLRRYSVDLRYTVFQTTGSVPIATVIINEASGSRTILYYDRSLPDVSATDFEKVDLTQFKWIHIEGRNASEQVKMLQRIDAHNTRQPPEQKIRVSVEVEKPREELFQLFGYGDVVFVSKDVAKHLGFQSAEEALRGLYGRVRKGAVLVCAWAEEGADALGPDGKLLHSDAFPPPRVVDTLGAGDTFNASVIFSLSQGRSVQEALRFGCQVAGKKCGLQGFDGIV

| Structure (SMILES) | IC50 [1] [nM] | IC50 [2] [nM] |
| --- | --- | --- |
| C[C@H]1[C@H](O)CN1c1nc(-c2ccc3c(c2)OCCC32NC(=O)NC2=O)c2c(n1)C(F)(F)CC2 (stereo partly drawn) [Example 551, 7-(7,7-difluoro-2-((2S,3R)-3-hydroxy-2-methylazetidin-1-yl)-6,7-dihydro-5H-cyclopenta[d]pyrimidin-4-yl)spiro[chromane-4,4′-imidazolidine]-2′,5′-dione] | 5.1 | 0.9 |
| C[C@H]1[C@H](O)CN1c1nc(-c2ccc3c(c2)OCCC32COC(=O)N2)c2c(n1)C(F)(F)CC2 (stereo partly drawn) [Example 553, 7-(7,7-difluoro-2-((2S,3R)-3-hydroxy-2-methylazetidin-1-yl)-6,7-dihydro-5H-cyclopenta[d]pyrimidin-4-yl)spiro[chromane-4,4′-oxazolidin]-2′-one] | 15.3 | 1.6 |
| C[C@H]1[C@H](O)CN1c1nc(-c2ccc3c(c2)COCC32COC(=O)N2)c2c(n1)C(F)(F)CC2 (stereo partly drawn) [Example 554, 7-(7,7-difluoro-2-((2S,3R)-3-hydroxy-2-methylazetidin-1-yl)-6,7-dihydro-5H-cyclopenta[d]pyrimidin-4-yl)spiro[isochromane-4,4′-oxazolidin]-2′-one] | 29.2 | 2.8 |
| C[C@H]1[C@H](O)CN1c1nc(-c2ccc3c(c2)CC2OC(=O)NC32)c2c(n1)C(F)(F)CC2 (stereo partly drawn) [Example 557, 6-(7,7-difluoro-2-((2S,3R)-3-hydroxy-2-methylazetidin-1-yl)-6,7-dihydro-5H-cyclopenta[d]pyrimidin-4-yl)-3,3a,8,8a-tetrahydro-2H-indeno[1,2-cl]oxazol-2-one] | 10.8 | 8.6 |
| CC1OCC2(COc3cc(-c4nc(N5C[C@@H](O)[C@@H]5C)nc5c4CCC5(F)F)ccc32)NC1=O (stereo partly drawn) [Example 558, 6-(7,7-difluoro-2-((2S,3R)-3-hydroxy-2-methylazetidin-1-yl)-6,7-dihydro-5H-cyclopenta[d]pyrimidin-4-yl)-6′-methyl-2H-spiro[benzofuran-3,3′-morpholin]-5′-one] | 8.2 | 0.2 |
| COC[C@H]1CCN1c1nc(-c2ccc(C3(N)COC3)cc2)c2c(n1)C(F)(F)CC2 [Example 569, (R)-3-(4-(7,7-difluoro-2-(2-(methoxymethyl)azetidin-1-yl)-6,7-dihydro-5H-cyclopenta[d]pyrimidin-4-yl)phenyl)oxetan-3-amine] | 43 | 15.2 |
| C[C@H]1CCCN1c1nc(-c2ccc(C3(N)COC3)cc2)c2c(n1)C(F)(F)CC2 [Example 570, (S)-3-(4-(7,7-difluoro-2-(2-methylpyrrolidin-1-yl)-6,7-dihydro-5H-cyclopenta[d]pyrimidin-4-yl)phenyl)oxetan-3-amine] | 25 | 10.9 |
| NC1(c2ccc(-c3nc(N4CCC5CC54)nc4c3CCC4(F)F)cc2)COC1 (stereo not drawn) [Example 571, 3-(4-(2-(2-azabicyclo[3.1.0]hexan-2-yl)-7,7-difluoro-6,7-dihydro-5H-cyclopenta[d]pyrimidin-4-yl)phenyl)oxetan-3-amine] | 43.5 | 49.7 |
| NC1(c2ccc(-c3nc(N4CCC4C4CCC4)nc4c3CCC4(F)F)cc2)COC1 (stereo not drawn) [Example 572, 3-(4-(2-(2-cyclobutylazetidin-1-yl)-7,7-difluoro-6,7-dihydro-5H-cyclopenta[d]pyrimidin-4-yl)phenyl)oxetan-3-amine] | > 100 | 56.3 |
| C[C@H]1[C@H](O)CN1c1nc(-c2cc3c(s2)CCC3NS(C)(=O)=O)c2c(n1)C(F)(F)CC2 (stereo partly drawn) [Example 574] | 11.1 | 9.4 |
| C[C@@H]1N(c2nc(-c3ccc4c(c3)OC[C@@H]4NS(C)(=O)=O)c3c(n2)C(F)(F)CC3)C[C@@]1(C)O [Example 575, N—((R)-6-(7,7-difluoro-2-((2S,3R)-3-hydroxy-2,3-dimethylazetidin-1-yl)-6,7-dihydro-5H-cyclopenta[d]pyrimidin-4-yl)-2,3-dihydrobenzofuran-3-yl)methanesulfonamide] | 52.4 | 5.9 |
| NC1(c2ccc(-c3nc(N4CCC4C(F)F)nc4c3CCC4(F)F)cc2)COC1 (stereo not drawn) [Example 678, 3-[4-[2-[2-(difluoromethyl)azetidin-1-yl]-7,7-difluoro-5,6-dihydrocyclopenta[d]pyrimidin-4-yl]phenyl]oxetan-3-amine] | 4.6 | 1.8 |

Further lines, results first:

| IC50 [1] [nM] | IC50 [2] [nM] | Structure (SMILES) |
| --- | --- | --- |
| > 100 | 6.8 | C[C@@H]1N(c2nc(-c3ccc4c(c3)CCC43COC(=O)N3)c3c(n2)C(F)(F)CC3)C[C@@]1(C)O (stereo partly drawn) [Example 576, 5-(7,7-difluoro-2-((2S,3R)-3-hydroxy-2,3-dimethylazetidin-1-yl)-6,7-dihydro-5H-cyclopenta[d]pyrimidin-4-yl)-2,3-dihydrospiro[indene-1,4′-oxazolidin]-2′-one] |
| 2.1 | 0.6 | CS(=O)(=O)N[C@H]1COc2cc(-c3nc(N4CC[C@@H]4C(F)(F)F)nc4c3CCC4(F)F)ccc21 [Example 577, N—((R)-6-(7,7-difluoro-2-((R)-2-(trifluoromethyl)azetidin-1-yl)-6,7-dihydro-5H-cyclopenta[d]pyrimidin-4-yl)-2,3-dihydrobenzofuran-3-yl)methanesulfonamide] |
| 22.5 | 6.1 | C[C@H]1[C@H](O)CN1c1nc(-c2ccc3c(c2)COC[C@H]3NS(C)(=O)=O)c2c(n1)C(F)(F)CC2 [Example 578, N—((S)-7-(7,7-difluoro-2-((2S,3R)-3-hydroxy-2-methylazetidin-1-yl)-6,7-dihydro-5H-cyclopenta[d]pyrimidin-4-yl)isochroman-4-yl)methanesulfonamide] |
| 25 | 2.7 | C[C@H]1[C@H](O)CN1c1nc(-c2ccc3c(c2)COC[C@@H]3NS(=O)(=O)C2CC2)c2c(n1)C(F)(F)CC2 [Example 579, N—((R)-7-(7,7-difluoro-2-((2S,3R)-3-hydroxy-2-methylazetidin-1-yl)-6,7-dihydro-5H-cyclopenta[d]pyrimidin-4-yl)isochroman-4-yl)cyclopropanesulfonamide] |
| 3.1 | 0.8 | CS(=O)(=O)N[C@H]1COCc2cc(-c3nc(N4CC[C@@H]4C(F)(F)F)nc4c3CCC4(F)F)ccc21 [Example 581, N—((R)-7-(7,7-difluoro-2-((R)-2-(trifluoromethyl)azetidin-1-yl)-6,7-dihydro-5H-cyclopenta[d]pyrimidin-4-yl)isochroman-4-yl)methanesulfonamide] |
| 7 | 0.8 | C[C@H]1[C@H](F)CN1c1nc(-c2ccc3c(c2)COC[C@@H]3NS(C)(=O)=O)c2c(n1)C(F)(F)CC2 [Example 582, N—((R)-7-(7,7-difluoro-2-((2S,3R)-3-fluoro-2-methylazetidin-1-yl)-6,7-dihydro-5H-cyclopenta[d]pyrimidin-4-yl)isochroman-4-yl)methanesulfonamide] |
| 8.7 | 1.3 | C[C@H]1[C@@H](F)CN1c1nc(-c2ccc3c(c2)COC[C@@H]3NS(C)(=O)=O)c2c(n1)C(F)(F)CC2 [Example 583, N—((R)-7-(7,7-difluoro-2-((28,38)-3-fluoro-2-methylazetidin-1-yl)-6,7-dihydro-5H-cyclopenta[d]pyrimidin-4-yl)isochroman-4-yl)methanesulfonamide] |
| 19.8 | 2.6 | C[C@@H]1N(c2nc(-c3ccc4c(c3)COC[C@@H]4NS(C)(=O)=O)c3c(n2)C(F)(F)CC3)CC1(F)F [Example 584, N—((R)-7-(2-((S)-3,3-difluoro-2-methylazetidin-1-yl)-7,7-difluoro-6,7-dihydro-5H-cyclopenta[d]pyrimidin-4-yl)isochroman-4-yl)methanesulfonamide] |
| 41.6 | 21.2 | C[C@H]1[C@H](O)CN1c1nc(-c2ccc3c(c2)OC[C@@H]3NC2COC2)c2c(n1)C(F)(F)CC2 [Example 585, (2S,3R)-1-[7,7-difluoro-4-[(3R)-3-(oxetan-3-ylamino)-2,3-dihydrobenzofuran-6-yl]-5,6-dihydrocyclopenta[d]pyrimidin-2-yl]-2-methyl-azetidin-3-ol] |
| 0.5 | 0.4 | NC1(c2ccc(-c3nc(N4CC[C@@H]4C(F)(F)F)nc4c3CCC4(F)F)cc2)CCOC1 (stereo partly drawn) [Example 587, 3-[4-[7,7-difluoro-2-[(2R)-2-(trifluoromethyl)azetidin-1-yl]-5,6-dihydrocyclopenta[d]pyrimidin-4-yl]phenyl]tetrahydrofuran-3-amine] |
| 2.7 | 1.4 | NC1(c2ccc(-c3nc(N4CC[C@@H]4C(F)(F)F)nc4c3CCC4(F)F)cc2F)COC1 [Example 589, 3-[4-[7,7-difluoro-2-[(2R)-2-(trifluoromethyl)azetidin-1-yl]-5,6-dihydrocyclopenta[d]pyrimidin-4-yl]-2-fluoro-phenyl]oxetan-3-amine] |
| 2.4 | 0.9 | NC1(c2ccc(-c3nc(N4CCC4C(F)(F)F)nc4c3CCC4(F)F)cc2)COC1 (stereo not drawn) [Example 683, 3-[4-[7,7-difluoro-2-[2-(trifluoromethyl)azetidin-1-yl]-5,6-dihydrocyclopenta[d]pyrimidin-4-yl]phenyl]oxetan-3-amine] |
| 14.2 | 0.2 | CCN1C(=O)NC2(COc3cc(-c4nc(N5C[C@@H](O)[C@@H]5C)nc5c4CCC5(F)F)ccc32)C1=O (stereo partly drawn) [Example 689, 6-[7,7-difluoro-2-[(2S,3R)-3-hydroxy-2-methyl-azetidin-1-yl]-5,6-dihydrocyclopenta[d]pyrimidin-4-yl]-3′-ethyl-spiro[2H-benzofuran-3,5′-imidazolidine]-2′,4′-dione] |
| 45.4 | 0.3 | CC(C)N1C(=O)NC2(COc3cc(-c4nc(N5C[C@@H](O)[C@@H]5C)nc5c4CCC5(F)F)ccc32)C1=O (stereo partly drawn) [Example 690] |
| 1 | 0.4 | O=C1NC(=O)C2(COc3cc(-c4nc(N5CC[C@@H]5C(F)(F)F)nc5c4CCC5(F)F)ccc32)N1 (stereo partly drawn) [Example 703, 6-[7,7-difluoro-2-[(2R)-2-(trifluoromethyl)azetidin-1-yl]-5,6-dihydrocyclopenta[d]pyrimidin-4-yl]spiro[2H-benzofuran-3,5′-imidazolidine]-2′,4′-dione] |
